According to patent US5865792A, “Reduction of skin irritation during electrotransport delivery” (priority 1997, dated 1999):

Key:
[1] = water; cited from earlier work
[2] = metoclopramide blood plasma concentrations during/after electrotransport delivery with and without hydrocortisone (HPLC); assay type: in vivo, human volunteers; conditions: FIG. 3; 10% MCP, 0.5% HC in anodic reservoir vs MCP alone; 100 μA/cm^2, 4 h
Text: MCP is a water soluble drug salt.

human skin [3] = tested on: human skin
skin [4] = conditions: prolonged exposure; cited from earlier work
human skin [5] = assay: skin irritation (α), electrotransport of placebo drug (sodium chloride) in 50% propylene glycol with and without hydrocortisone (Example V); assay type: in vivo, human volunteer; conditions: FIG. 8; 0.5% (w/v) hydrocortisone in 50% propylene glycol, cathodic and anodic reservoirs; 100 μA/cm^2, 3 h
Method: In vivo electrically assisted delivery of a placebo drug (sodium chloride), with a liquid solvent in which hydrocortisone has good solubility, was accomplished both with and without co-delivery of hydrocortisone using electrotransport systems substantially similar to those described in Example II, and having anodic/cathodic reservoir gels of the following formulations: […]
An electrotransport system was constructed having anodic and cathodic reservoirs comprised of 350 μl of gel formulation I. This system was applied on the left forearm of a human volunteer. The skin contact area of each electrode gel was 2 cm^2. The anode material used in the systems was silver foil and the cathode material used in each of the systems was silver chloride. The electrodes were connected to a galvanostat preset to deliver a constant current of 100 μA/cm^2. Simultaneously another electrotransport system with similar size and current density, but whose anodic and cathodic reservoirs were comprised of 350 μl of gel formulation II was applied on the right forearm of the same volunteer. The systems were worn for 3 hours. After removal, skin irritation (α) was monitored using the Minolta Chroma Meter.

skin [6] = conditions: otherwise equivalent reservoirs; cited from earlier work
skin [7] = assay: skin irritation (α), electrotransport of placebo drug (sodium chloride), hydrocortisone in the cathodic reservoir (Example IV); assay type: in vivo
Text: In vivo electrically assisted delivery of a placebo drug (sodium chloride) with various liquid solvents was accomplished both with and without co-delivery of an anti-inflammatory agent (hydrocortisone) using electrotransport systems substantially similar to those described in Example II. Four different electrotransport system configurations were constructed.
The anode material used in each of the systems was silver foil and the cathode material used in each of the systems was silver chloride. The size of the gels and the applied current levels were the same as in Example II.

For CCN(CC)CCNC(=O)c1cc(Cl)c(N)cc1OC [metoclopramide HCI], the solubility in words [1] is given as “water soluble”, the “effect of addition of hydrocortisone on delivery of metoclopramide into the bloodstream” value [2] is given as “does not significantly affect the delivery of metoclopramide into the bloodstream” and the “skin irritation caused by the drug” value (human skin [3]; in vivo) is given as “skin irritating drug”.

In the case of C[C@]12CCC(=O)C=C1CC[C@@H]1[C@@H]2C(O)C[C@@]2(C)[C@H]1CC[C@]2(O)C(=O)CO (stereo partly shown) [hydrocortisone, 11,17,21-trihydroxypregn-4-ene-3,20-dione], the “local side effects such as skin thinning” value (skin [4]) is listed as “does not result in unacceptable local side effects such as skin thinning”, the “erythema compared to reservoirs containing no hydrocortisone” value (human skin [5]) is listed as “substantially less erythema” and the “electroosmotic flux from a cathodic reservoir vs. equivalent anodic reservoir” value (skin [6]) is listed as “substantially lower”. For the same compound, the “reduction of erythema of the skin in contact with the cathodic reservoir” value (skin [7]; 0.25 mg/mL hydrocortisone in water) was “insufficient to reduce erythema”, the “reddening of the skin in contact with the cathodic reservoir” value (skin [7]; FIG. 7, system 1: 5 mg/mL hydrocortisone, 40% ethanol, vs 40% ethanol without hydrocortisone) was “significant reduction in the reddening of the skin” and the “erythema values, System 3 vs System 4” value (skin [7]; System 3: 0.25 mg/mL hydrocortisone in water, no ethanol) was “substantially the same (i.e., at most only about one α unit apart)”. For the same compound, the “skin irritation (α) vs. anodic reservoirs containing no hydrocortisone” value (human skin [3]; FIG. 2, 0.5% HC with 10% MCP in anodic reservoir, 4 h wear, 1, 4, 24, 48 h after removal) was “less skin irritation”.
